This is an account of results in patent US9586951B2 (FUJIFILM Corporation, priority 2013, dated 2017).

Structures are written as SMILES.

T1 sequence (Q13315 whole entry): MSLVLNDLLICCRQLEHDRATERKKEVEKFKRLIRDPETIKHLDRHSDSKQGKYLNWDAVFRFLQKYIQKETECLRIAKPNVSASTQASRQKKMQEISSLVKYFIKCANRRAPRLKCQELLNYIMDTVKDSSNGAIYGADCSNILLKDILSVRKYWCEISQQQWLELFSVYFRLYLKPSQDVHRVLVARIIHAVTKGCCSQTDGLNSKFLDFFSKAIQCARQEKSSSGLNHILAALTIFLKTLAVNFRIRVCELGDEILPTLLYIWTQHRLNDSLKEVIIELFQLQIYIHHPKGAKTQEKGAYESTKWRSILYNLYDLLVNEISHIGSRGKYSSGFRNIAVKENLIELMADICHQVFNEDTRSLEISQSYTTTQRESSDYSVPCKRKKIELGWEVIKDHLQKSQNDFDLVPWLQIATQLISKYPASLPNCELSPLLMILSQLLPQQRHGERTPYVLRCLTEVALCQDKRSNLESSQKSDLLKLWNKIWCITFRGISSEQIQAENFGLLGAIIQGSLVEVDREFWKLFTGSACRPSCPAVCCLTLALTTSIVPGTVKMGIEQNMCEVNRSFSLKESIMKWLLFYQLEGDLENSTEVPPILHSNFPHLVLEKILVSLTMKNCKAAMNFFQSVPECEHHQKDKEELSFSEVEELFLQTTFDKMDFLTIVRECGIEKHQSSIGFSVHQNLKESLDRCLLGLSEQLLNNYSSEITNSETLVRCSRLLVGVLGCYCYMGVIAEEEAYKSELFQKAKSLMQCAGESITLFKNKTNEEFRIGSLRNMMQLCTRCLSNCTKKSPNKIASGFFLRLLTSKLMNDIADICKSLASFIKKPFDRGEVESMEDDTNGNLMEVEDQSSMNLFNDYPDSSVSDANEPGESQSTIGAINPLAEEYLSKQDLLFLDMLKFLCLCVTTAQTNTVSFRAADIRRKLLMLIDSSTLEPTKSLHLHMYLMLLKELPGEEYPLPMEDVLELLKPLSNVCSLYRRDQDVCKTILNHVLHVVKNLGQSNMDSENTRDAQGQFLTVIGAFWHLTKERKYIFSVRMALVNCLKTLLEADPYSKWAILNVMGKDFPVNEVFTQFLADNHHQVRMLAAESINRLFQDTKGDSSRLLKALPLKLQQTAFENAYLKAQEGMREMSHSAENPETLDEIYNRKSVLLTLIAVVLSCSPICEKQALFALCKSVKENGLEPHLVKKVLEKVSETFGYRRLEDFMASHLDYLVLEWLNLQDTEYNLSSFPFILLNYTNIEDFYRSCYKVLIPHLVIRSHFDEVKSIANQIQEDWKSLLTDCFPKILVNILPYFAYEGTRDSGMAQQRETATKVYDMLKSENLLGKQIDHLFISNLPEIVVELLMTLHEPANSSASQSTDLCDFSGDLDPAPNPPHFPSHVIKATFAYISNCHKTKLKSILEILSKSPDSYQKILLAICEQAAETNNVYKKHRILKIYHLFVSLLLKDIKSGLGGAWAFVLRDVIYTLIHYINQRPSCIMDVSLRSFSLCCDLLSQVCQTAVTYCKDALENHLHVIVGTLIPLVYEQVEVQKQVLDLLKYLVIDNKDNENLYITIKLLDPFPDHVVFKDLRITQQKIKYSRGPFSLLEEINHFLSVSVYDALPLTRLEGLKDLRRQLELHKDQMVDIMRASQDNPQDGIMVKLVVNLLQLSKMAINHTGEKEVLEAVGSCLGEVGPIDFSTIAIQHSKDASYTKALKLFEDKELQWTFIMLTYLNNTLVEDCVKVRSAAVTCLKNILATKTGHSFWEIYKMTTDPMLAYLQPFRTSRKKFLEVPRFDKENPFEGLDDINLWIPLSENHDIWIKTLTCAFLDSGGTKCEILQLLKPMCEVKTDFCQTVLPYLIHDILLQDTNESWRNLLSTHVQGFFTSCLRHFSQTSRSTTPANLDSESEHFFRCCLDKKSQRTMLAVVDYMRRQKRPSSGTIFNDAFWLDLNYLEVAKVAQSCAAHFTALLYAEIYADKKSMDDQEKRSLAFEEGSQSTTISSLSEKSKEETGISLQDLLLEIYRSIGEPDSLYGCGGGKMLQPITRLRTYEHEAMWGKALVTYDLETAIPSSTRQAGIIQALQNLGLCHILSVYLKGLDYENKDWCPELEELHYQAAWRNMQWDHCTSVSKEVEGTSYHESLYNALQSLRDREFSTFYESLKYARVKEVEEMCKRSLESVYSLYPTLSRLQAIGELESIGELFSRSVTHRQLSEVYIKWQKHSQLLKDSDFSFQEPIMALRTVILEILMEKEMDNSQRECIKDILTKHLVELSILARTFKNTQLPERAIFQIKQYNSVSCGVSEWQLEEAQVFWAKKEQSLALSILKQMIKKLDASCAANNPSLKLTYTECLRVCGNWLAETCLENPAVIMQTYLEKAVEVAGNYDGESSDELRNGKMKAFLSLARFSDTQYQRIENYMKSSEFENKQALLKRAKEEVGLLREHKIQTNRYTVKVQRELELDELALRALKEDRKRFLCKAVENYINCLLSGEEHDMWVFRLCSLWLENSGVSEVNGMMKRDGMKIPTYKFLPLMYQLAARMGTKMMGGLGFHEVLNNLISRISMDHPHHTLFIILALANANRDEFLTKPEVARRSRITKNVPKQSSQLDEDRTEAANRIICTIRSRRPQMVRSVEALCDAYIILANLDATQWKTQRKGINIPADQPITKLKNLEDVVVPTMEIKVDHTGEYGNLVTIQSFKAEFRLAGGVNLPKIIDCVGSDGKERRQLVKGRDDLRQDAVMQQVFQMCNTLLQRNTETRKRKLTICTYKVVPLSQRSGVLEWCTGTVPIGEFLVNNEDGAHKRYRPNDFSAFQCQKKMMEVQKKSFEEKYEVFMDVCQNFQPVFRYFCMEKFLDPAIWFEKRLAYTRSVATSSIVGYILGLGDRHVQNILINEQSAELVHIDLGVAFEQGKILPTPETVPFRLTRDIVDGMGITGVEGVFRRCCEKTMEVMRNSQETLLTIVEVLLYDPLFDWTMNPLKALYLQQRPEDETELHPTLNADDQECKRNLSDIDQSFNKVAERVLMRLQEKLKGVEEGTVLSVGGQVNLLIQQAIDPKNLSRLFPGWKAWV

The experiment addresses T1, ATM (Homo sapiens, UniProt Q13315).
T1 construct: detecting phosphorylation of Chk2 in a human non-small cell lung cancer cell line NCI-H460 (ATCC company); host or cells: NCI-H460 human non-small cell lung cancer cells
Description: ATM inhibition test (phosphorylation of Chk2 generated by ionizing radiation, AlphaScreen SureFire). To be noted: phosphorylated Chk2 in NCI-H460 cells, ionizing radiation 8Gy, 1 hour after test compound treatment; read-out: ATM inhibitory activity. Format: cell-based. In a few lines: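 Human NCI-H460 lung cancer cells were treated with compound for 1 h, then irradiated at 8Gy and incubated 1 h at 37° C. Phospho-Chk2 was quantified by AlphaScreen SureFire; inhibition % was normalised between irradiated untreated and non-irradiated untreated wells.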
For the molecule `COCCN1CCC(Nc2ccc3c(c2)Cc2cccc(-c4cc(N5CCOCC5)cc(=O)[nH]4)c2O3)CC1` [Example 2-29, 6-(7-((1-(2-Methoxyethyl)piperidin-4-yl)amino)-9H-xanthen-4-yl)-4-morpholinopyridin-2(1H)-one], the IC50 lay within 500 to 2000 nM.

Take `CC1CC(Nc2ccc3c(c2)Cc2cccc(-c4cc(N5CCOCC5)cc(=O)[nH]4)c2O3)CCN1C(=O)OC(C)(C)C` (stereo not shown) [Example 2-14-84, tert-Butyl 2-methyl-4-((5-(4-morpholino-6-oxo-1,6-dihydropyridin-2-yl)-9H-xanthen-2-yl)amino) piperidine-1-carboxylate]: the IC50 is 500 to 2000 nM.

For the molecule `Nc1ccc2c(c1)Cc1cc(F)cc(-c3cc(N4CCOCC4)cc(=O)[nH]3)c1O2` [Example 2-48-1, 6-(7-amino-2-fluoro-9H-xanthen-4-yl)-4-morpholinopyridin-2(1H)-one], the IC50 lay in the range of 500 to 2000 nM.

On to `COc1ccc(CN2CCC(Nc3ccc4c(c3)Cc3cccc(-c5cc(N6CCOCC6)cc(=O)[nH]5)c3O4)CC2)cn1` [Example 2-28-6, 6-(7-((1-((6-Methoxypyridin-3-yl)methyl)piperidin-4-yl)amino)-9H-xanthen-4-yl)-4-morpholino pyridin-2(1H)-one], for which the IC50 is 100 to 500 nM.

For `Cc1nccc(CNc2ccc3c(c2)Sc2cccc(-c4cc(N5CCOCC5)cc(=O)[nH]4)c2S3)n1` [Example 1-12-39, 6-(7-(((2-Methylpyrimidin-4-yl)methyl)amino)thianthren-1-yl)-4-morpholino pyridin-2 (1H)-one], the IC50 was in the range of 500 to 2000 nM.

Consider `CC(Nc1ccc2c(c1)Cc1cccc(-c3cc(N4CCOCC4)cc(=O)[nH]3)c1O2)c1ncc(CO)cn1` (stereo not shown) [Example 2-14-66, 6-(7-((1-(5-(Hydroxymethyl)pyrimidin-2-yl)ethyl)amino)-9H-xanthen-4-yl)-4-morpholino pyridin-2(1H)-one], for which the IC50 lay within 500 to 2000 nM.

For the molecule `CC(CNc1ccc2c(c1)Sc1cccc(-c3cc(N4CCOCC4)cc(=O)[nH]3)c1S2)CN1CCOCC1` (stereo not shown) [Example 8-4, 6-(7-((2-Methyl-3-morpholinopropyl)amino)thianthren-1-yl)-4-morpholinopyridin-2(1H)-one], the IC50 fell in the range of 100 to 500 nM.

For `CC(C)Nc1cncc(CNc2ccc3c(c2)Sc2cccc(-c4cc(N5CCOCC5)cc(=O)[nH]4)c2O3)c1` [Example 4-8-26], the IC50 is 100 to 500 nM.

Regarding `CC(Nc1ccc2c(c1)Sc1cccc(-c3cc(N4CCOCC4)cc(=O)[nH]3)c1S2)c1ccncn1` (stereo not shown) [Example 1-12-74, 4-Morpholino-6-(7-((1-(pyrimidin-4-yl)ethyl)amino)thianthren-1-yl)pyridin-2 (1H)-one], the IC50 was 100 to 500 nM.

For the molecule `CC(Nc1ccc2c(c1)Cc1cccc(-c3cc(N4CCOCC4)cc(=O)[nH]3)c1O2)c1cnc(N(C)C)cn1` (stereo not shown) [Example 2-14-53, 6-(7-((1-(5-(Dimethylamino)pyrazin-2-yl)ethyl)amino)-9H-xanthen-4-yl)-4-morpholino pyridin-2(1H)-one], the IC50 lay within 100 to 500 nM.

For `Cc1ccnc(C(C)Nc2ccc3c(c2)Cc2cccc(-c4cc(N5CCOCC5)cc(=O)[nH]4)c2O3)c1` (single isomer, unassigned) [Example 2-14-93-1, 6-(7-((1-(4-methylpyridin-2-yl)ethyl)amino)-9H-xanthen-4-yl)-4-morpholinopyridin-2(1H)-one], the IC50 was in the range of 100 to 500 nM.

For the molecule `COc1ncccc1CNc1ccc2c(c1)Cc1cccc(-c3cc(N4CCOCC4)cc(=O)[nH]3)c1O2` [Example 2-13-12, 6-(7-(((2-Methoxypyridin-3-yl)methyl)amino)-9H-xanthen-4-yl)-4-morpholino pyridin-2(1H)-one], the IC50 fell in the range of 100 to 500 nM.

Turning to `O=c1cc(N2CCOCC2)cc(-c2cccc3c2Oc2ccc(NC4CCN(Cc5cccc(C6CC6)n5)CC4)cc2C3)[nH]1` [Example 2-28-31, 6-(7-((1-((6-Cyclopropylpyridin-2-yl)methyl)piperidin-4-yl)amino)-9H-xanthen-4-yl)-4-morpholino pyridin-2(1H)-one], the IC50 is 100 to 500 nM.
